The CheMixHub viscosity set
± gives the uncertainty stated by the source.

Experiment: xn = mol fraction of the nth substance listed

CCCC(=O)OCC + C1CCCCC1
viscosity [mPa·s], 101 kPa
Conditions | 298.15 K | 308.15 K
x1 = 0.0551 | 0.852 ± 0.086 | 0.72 ± 0.072
x1 = 0.1552 | 0.796 ± 0.08 | 0.667 ± 0.067
x1 = 0.2554 | 0.75 ± 0.075 | 0.626 ± 0.063
x1 = 0.3554 | 0.711 ± 0.071 | 0.594 ± 0.06
x1 = 0.4504 | 0.682 ± 0.068 | 0.573 ± 0.058
x1 = 0.4992 | 0.669 ± 0.067 | 0.564 ± 0.057
x1 = 0.5558 | 0.656 ± 0.066 | 0.557 ± 0.056
x1 = 0.6532 | 0.638 ± 0.064 | 0.549 ± 0.055
x1 = 0.7547 | 0.624 ± 0.063 | 0.548 ± 0.055
x1 = 0.8532 | 0.616 ± 0.062 | 0.554 ± 0.056
x1 = 0.9564 | 0.613 ± 0.061 | 0.568 ± 0.057

CCCCN + C1CCCCC1
viscosity [mPa·s], 101 kPa
Conditions | 303.15 K | 313.15 K
x1 = 0.00966 | 0.8095 ± 0.0056 | 0.7083 ± 0.005
x1 = 0.01973 | 0.8005 ± 0.0055 | 0.6998 ± 0.005
x1 = 0.02822 | 0.7907 ± 0.0055 | 0.6925 ± 0.0049
x1 = 0.03804 | 0.7823 ± 0.0054 | 0.6831 ± 0.0049
x1 = 0.04713 | 0.7702 ± 0.0053 | 0.6749 ± 0.0049
x1 = 0.05811 | 0.758 ± 0.0053 | 0.6646 ± 0.0048
x1 = 0.0674 | 0.7469 ± 0.0052 | 0.6553 ± 0.0048
x1 = 0.07236 | 0.7374 ± 0.0052 | 0.6487 ± 0.0047
x1 = 0.08731 | 0.7267 ± 0.0051 | 0.637 ± 0.0047
x2 = 0.1009 | 0.453 ± 0.009 | –
x2 = 0.2007 | 0.467 ± 0.009 | –
x2 = 0.3012 | 0.492 ± 0.01 | –
x2 = 0.3987 | 0.501 ± 0.01 | –
x2 = 0.4982 | 0.529 ± 0.011 | –
x2 = 0.5729 | 0.553 ± 0.011 | –
x2 = 0.7003 | 0.601 ± 0.012 | –
x2 = 0.7863 | 0.652 ± 0.013 | –
x2 = 0.8993 | 0.725 ± 0.015 | –

CCCCN + C1COCCO1
298.15 K, 101 kPa
Conditions | viscosity [mPa·s]
x1 = 0.05 | 1.094 ± 0.01
x1 = 0.1 | 1.019 ± 0.01
x1 = 0.1005 | 1.018 ± 0.01
x1 = 0.15 | 0.953 ± 0.011
x1 = 0.2 | 0.896 ± 0.011
x1 = 0.2025 | 0.893 ± 0.009
x1 = 0.25 | 0.846 ± 0.011
x1 = 0.2973 | 0.806 ± 0.008
x1 = 0.3 | 0.801 ± 0.011
x1 = 0.35 | 0.761 ± 0.011
x1 = 0.3935 | 0.726 ± 0.007
x1 = 0.4 | 0.725 ± 0.012
x1 = 0.45 | 0.692 ± 0.012
x1 = 0.4987 | 0.665 ± 0.007
x1 = 0.5 | 0.662 ± 0.012
x1 = 0.55 | 0.634 ± 0.012
x1 = 0.5971 | 0.609 ± 0.006
x1 = 0.6 | 0.609 ± 0.012
x1 = 0.65 | 0.585 ± 0.012
x1 = 0.6965 | 0.566 ± 0.006
x1 = 0.7 | 0.564 ± 0.012
x1 = 0.75 | 0.545 ± 0.012
x1 = 0.7959 | 0.529 ± 0.006
x1 = 0.8 | 0.528 ± 0.013
x1 = 0.85 | 0.512 ± 0.013
x1 = 0.9 | 0.498 ± 0.013
x1 = 0.9041 | 0.497 ± 0.005
x1 = 0.95 | 0.486 ± 0.013

CCCCN + C=C(C)C(=O)OC
303.15 K, 101 kPa
Conditions | viscosity [mPa·s]
x2 = 0.1016 | 0.4525 ± 0.0055
x2 = 0.1939 | 0.4608 ± 0.0055
x2 = 0.3316 | 0.4724 ± 0.0056
x2 = 0.4989 | 0.4852 ± 0.0056
x2 = 0.5966 | 0.4921 ± 0.0057
x2 = 0.8001 | 0.5045 ± 0.0057
x2 = 0.9006 | 0.5097 ± 0.0057

O=[N+]([O-])[O-].[Ag+] + CC#N
298.15 K, 101 kPa
Conditions | viscosity [mPa·s]
x1 = 0.012 | 0.409 ± 0.011
x1 = 0.03806 | 0.524 ± 0.014
x1 = 0.1017 | 1.046 ± 0.028
x1 = 0.2421 | 6.48 ± 0.17

O=C(O)C(Cl)(Cl)Cl + CC(=O)O
298.15 K, 101 kPa
Conditions | viscosity [mPa·s]
x1 = 0.0737 | 1.532 ± 0.04
x1 = 0.1777 | 2.228 ± 0.059
x1 = 0.3209 | 3.362 ± 0.089
x1 = 0.4348 | 4.346 ± 0.12
x1 = 0.5262 | 5.176 ± 0.14
x1 = 0.5853 | 5.859 ± 0.16
x1 = 0.6581 | 6.854 ± 0.18

CC(=O)[O-].[NH4+] + CC(=O)[O-].CC[n+]1ccn(C)c1
101 kPa
Conditions | viscosity [mPa·s]
298.15 K, x1 = 0.0503 | 152.5 ± 10
303.15 K, x1 = 0.1703 | 185.5 ± 12

O=C(O)C(Cl)(Cl)Cl + CC(=O)c1ccccc1
298.15 K, 101 kPa
Conditions | viscosity [mPa·s]
x1 = 0.0896 | 2.112 ± 0.056
x1 = 0.14 | 2.402 ± 0.064
x1 = 0.2121 | 2.931 ± 0.078
x1 = 0.2939 | 3.735 ± 0.099
x1 = 0.409 | 5.54 ± 0.15
x1 = 0.4876 | 7.349 ± 0.2
x1 = 0.5794 | 9.33 ± 0.25
x1 = 0.6815 | 11.15 ± 0.31

CCCCN + CC(C)(C)O
viscosity [mPa·s], 101 kPa
Conditions | x2 = 0.1 | x2 = 0.2004 | x2 = 0.2999 | x2 = 0.4 | x2 = 0.4996 | x2 = 0.6 | x2 = 0.7 | x2 = 0.8 | x2 = 0.9004 | x2 = 0.95
303.15 K | 0.5062 ± 0.0065 | 0.5833 ± 0.0074 | 0.681 ± 0.0085 | 0.804 ± 0.01 | 0.9662 ± 0.012 | 1.177 ± 0.014 | 1.466 ± 0.018 | 1.866 ± 0.023 | 2.458 ± 0.03 | 2.869 ± 0.035
308.15 K | 0.4732 ± 0.0061 | 0.541 ± 0.0069 | 0.6257 ± 0.0079 | 0.733 ± 0.0091 | 0.8694 ± 0.011 | 1.046 ± 0.013 | 1.279 ± 0.016 | 1.591 ± 0.019 | 2.021 ± 0.025 | 2.3 ± 0.028
313.15 K | 0.4425 ± 0.0057 | 0.5022 ± 0.0064 | 0.5783 ± 0.0073 | 0.6716 ± 0.0084 | 0.7865 ± 0.0097 | 0.9346 ± 0.011 | 1.119 ± 0.014 | 1.363 ± 0.017 | 1.68 ± 0.021 | 1.874 ± 0.023
318.15 K | 0.4156 ± 0.0054 | 0.4687 ± 0.006 | 0.5345 ± 0.0068 | 0.6159 ± 0.0077 | 0.7149 ± 0.0089 | 0.8377 ± 0.01 | 0.9897 ± 0.012 | 1.183 ± 0.014 | 1.417 ± 0.017 | 1.553 ± 0.019
323.15 K | 0.3905 ± 0.0051 | 0.4378 ± 0.0056 | 0.4957 ± 0.0063 | 0.5666 ± 0.0071 | 0.6519 ± 0.0081 | 0.7551 ± 0.0093 | 0.8801 ± 0.011 | 1.031 ± 0.013 | 1.21 ± 0.015 | 1.309 ± 0.016

CC[N+](=O)[O-] + CC(C)(C)O
viscosity [mPa·s], 101.33 kPa
Conditions | 298.15 K | 303.15 K | 313.15 K
x2 = 0.0502 | 0.646 ± 0.006 | 0.61 ± 0.006 | 0.546 ± 0.005
x2 = 0.1001 | 0.647 ± 0.006 | 0.609 ± 0.006 | 0.544 ± 0.005
x2 = 0.1499 | 0.655 ± 0.006 | 0.615 ± 0.006 | 0.546 ± 0.005
x2 = 0.2002 | 0.67 ± 0.006 | 0.626 ± 0.006 | 0.547 ± 0.005
x2 = 0.2501 | 0.691 ± 0.006 | 0.643 ± 0.006 | 0.563 ± 0.005
x2 = 0.3001 | 0.718 ± 0.006 | 0.667 ± 0.006 | 0.58 ± 0.005
x2 = 0.35 | 0.753 ± 0.007 | 0.694 ± 0.006 | 0.597 ± 0.005
x2 = 0.4 | 0.794 ± 0.007 | 0.73 ± 0.006 | 0.622 ± 0.006
x2 = 0.4501 | 0.845 ± 0.007 | 0.778 ± 0.007 | 0.652 ± 0.006
x2 = 0.5001 | 0.909 ± 0.008 | 0.824 ± 0.007 | 0.687 ± 0.006
x2 = 0.55 | 0.988 ± 0.008 | 0.886 ± 0.008 | 0.728 ± 0.006
x2 = 0.6 | 1.075 ± 0.009 | 0.958 ± 0.008 | 0.777 ± 0.007
x2 = 0.6499 | 1.185 ± 0.01 | 1.047 ± 0.009 | 0.836 ± 0.007
x2 = 0.6998 | 1.323 ± 0.011 | 1.158 ± 0.01 | 0.907 ± 0.008
x2 = 0.7498 | 1.499 ± 0.012 | 1.3 ± 0.011 | 0.997 ± 0.008
x2 = 0.7998 | 1.73 ± 0.014 | 1.475 ± 0.012 | 1.104 ± 0.009
x2 = 0.8498 | 2.063 ± 0.016 | 1.728 ± 0.014 | 1.258 ± 0.01
x2 = 0.8997 | 2.505 ± 0.02 | 2.068 ± 0.016 | 1.449 ± 0.012
x2 = 0.95 | 3.231 ± 0.025 | 2.574 ± 0.02 | 1.718 ± 0.014

Cc1ccncc1 + CC(C)(C)O
298.15 K, 101.33 kPa
Conditions | viscosity [mPa·s]
x2 = 0.0724 | 0.8901 ± 0.011
x2 = 0.2166 | 0.9887 ± 0.011
x2 = 0.2902 | 1.056 ± 0.011
x2 = 0.3416 | 1.122 ± 0.012
x2 = 0.507 | 1.386 ± 0.013
x2 = 0.606 | 1.641 ± 0.014
x2 = 0.6484 | 1.777 ± 0.015
x2 = 0.7197 | 2.085 ± 0.017
x2 = 0.8 | 2.537 ± 0.02
x2 = 0.8603 | 2.959 ± 0.022
